# In article PMC5587727 (Nucleic Acids Research, 2017):
# Molecular target: hDcp2 (Homo sapiens, UniProt Q8IU60)
# Assay: In vitro RNA decapping assay with hDcp2
# Assay type: biochemical
# Details: RNA capped with the analogue; 15 min incubation; 100 ng capped RNA, 630 nM hDcp2
row,Structure (SMILES),Decapping susceptibility (% of RNA decapping) [%]
1,Cn1c[n+]([C@@H]2O[C@H](COP(=O)(O)OP(=O)([O-])OP(=O)(O)OC[C@H]3O[C@@H](n4cnc5c(=O)[nH]c(N)nc54)[C@H](O)[C@@H]3O)[C@@H](O)[C@H]2O)c2nc(N)[nH]c(=O)c21 [m^7GpppG],82 ± 2
2,"CO[C@H]1[C@@H](O)[C@H]([n+]2cn(C)c3c(=O)[nH]c(N)nc32)O[C@@H]1COP(=O)([O-])OP(=O)(O)OP(=O)(O)OC[C@H]1O[C@@H](n2cnc3c(=O)[nH]c(N)nc32)[C@H](O)[C@@H]1O [m2^7,3′-OGpppG]",74 ± 3
